Laboratory results: patent US12428406B2 (PMV Pharmaceuticals, Inc., priority 2019, dated 2025)

Target: T1, p53 Y220C (Homo sapiens, UniProt P04637, Y220C)
T1 construct: The recombinant protein was a truncation mutant containing only amino acids 94-312 of p53; made in house; host or cells: E. coli
Assay: In vitro DNA binding activity assay (HTRF / TR-FRET): stabilization of p53 Y220C and increase of its DNA binding activity
Type: biochemical
Settings: recombinant His-tagged p53 Y220C DNA binding domain (aa 94-312), biotin-labeled consensus DNA, incubated at 27° C. or 29° C. for 60 min
Outline: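 Test compounds, diluted 3-fold in DMSO from 4.5 mM stocks, were incubated with bacterially expressed His-tagged p53 Y220C at room temperature for 15 min, and after a further step for 20 min. DNA binding was detected by time-resolved FRET between APC and europium labels. SC150 marks the concentration increasing binding by 50%.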

T1 sequence (P04637 94-312, change not shown): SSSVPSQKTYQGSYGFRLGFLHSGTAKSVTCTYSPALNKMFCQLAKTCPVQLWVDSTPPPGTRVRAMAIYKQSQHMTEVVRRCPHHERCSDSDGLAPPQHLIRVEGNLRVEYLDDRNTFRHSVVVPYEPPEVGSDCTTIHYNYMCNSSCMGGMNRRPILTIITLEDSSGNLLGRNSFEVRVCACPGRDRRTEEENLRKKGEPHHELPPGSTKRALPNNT

Row | SC150 (concentration of the compound required to increase the DNA binding activity by 50%) | SMILES
1 | + (+ = 0 μM ≤ SC150 < 0.05 μM) | COc1cc(C(C)(C)C#N)ccc1NCC#Cc1cc2c(N[C@H]3CC[C@H](N(C)C)CC3)cccc2n1CC(F)(F)F [Compound 121A, 2-(3-methoxy-4-{[3-(4-{[(1R,4R)-4-(dimethylamino)cyclohexyl]amino}-1-(2,2,2-trifluoroethyl)-1H-indol-2-yl)prop-2-yn-1-yl]amino}phenyl)-2-methylpropanenitrile]
2 | + (+ = 0 μM ≤ SC150 < 0.05 μM) | COc1cc(S(C)(=O)=O)ccc1NCC#Cc1cc2c(N[C@H]3CC[C@H](N4CCOCC4)CC3)cccc2n1CC#N [Compound 174A, 2-(2-{3-[(4-methane-sulfonyl-2-methoxy-phenyl)amino]prop-1-yn-1-yl}-4-{[(1R,4R)-4-(morpholin-4-yl)cyclo-hexyl]amino}-1H-indol-1-yl)acetonitrile]
3 | + (+ = 0 μM ≤ SC150 < 0.05 μM) | COc1cncc(-c2ccc(NCC#Cc3cc4c(NC5CCN(C)CC5)cccc4n3CC(F)(F)F)c(OC)c2)c1 [Compound 494A, 2-(3-{[2-methoxy-4-(5-methoxypyridin-3-yl)phenyl]amino}prop-1-yn-1-yl)-N-(1-methylpiperidin-4-yl)-1-(2,2,2-trifluoroethyl)-1H-indol-4-amine]
4 | + (+ = 0 μM ≤ SC150 < 0.05 μM) | CNC(=O)c1ccc(NCC#Cc2cc3c(NC4CCN(CC(O)COC)CC4)cccc3n2CC(F)(F)F)c(OCC#N)c1 (stereo not shown) [Compound 654A, 3-(cyanomethoxy)-4-{[3-(4-{[1-(2-hydroxy-3-methoxypropyl)piperidin-4-yl]amino}-1-(2,2,2-trifluoroethyl)-1H-indol-2-yl)prop-2-yn-1-yl]amino}-N-methylbenzamide]
5 | +++ (+++ = 0.1 μM ≤ SC150 < 0.2 μM) | COc1cc(S(C)(=O)=O)ccc1NCC#Cc1cc2c(N[C@@H]3C[C@@H](C)O[C@@H](C)C3)cccc2n1CC(F)(F)F [Compound 1028A, 2-{3-[(4-methanesulfonyl-2-methoxyphenyl)amino]prop-1-yn-1-yl}-N-[(2R,4S,6S)-2,6-dimethyloxan-4-yl]-1-(2,2,2-trifluoroethyl)-1H-indol-4-amine]
6 | + (+ = 0 μM ≤ SC150 < 0.05 μM) | COc1cc(S(N)(=O)=O)ccc1NCC#Cc1cc2c(N[C@@H]3C[C@@H](C)O[C@@H](C)C3)cccc2n1CC(F)(F)F [Compound 1031A, 3-methoxy-4-{[3-(4-{[(2R,4S,6S)-2,6-dimethyloxan-4-yl]amino}-1-(2,2,2-trifluoroethyl)-1H-indol-2-yl)prop-2-yn-1-yl]amino}benzene-1-sulfonamide]
7 | + (+ = 0 μM ≤ SC150 < 0.05 μM) | COc1cc(C(N)=O)ccc1NCC#Cc1cc2c(N[C@@H]3CCN(C)C[C@@H]3F)cccc2n1CC(F)(F)F [Compound 800A, 4-{[3-(4-{[(3S,4R)-3-fluoro-1-methylpiperidin-4-yl]amino}-1-(2,2,2-trifluoroethyl)-1H-indol-2-yl)prop-2-yn-1-yl]amino}-3-methoxybenzamide]
8 | + (+ = 0 μM ≤ SC150 < 0.05 μM) | COc1cc(S(=O)(=O)N2CCN(C)CC2)ccc1NCC#Cc1cc2c(N[C@H]3CC[C@H](N(C)C)CC3)cccc2n1CC(F)(F)F [Compound 76A, (1R,4R)-N^4-{2-[3-({2-methoxy-4-[(4-methylpiperazin-1-yl)sulfonyl]phenyl}amino)prop-1-yn-1-yl]-1-(2,2,2-trifluoroethyl)-1H-indol-4-yl}-N^1,N^1-dimethyl-cyclohexane-1,4-diamine]
9 | + (+ = 0 μM ≤ SC150 < 0.05 μM) | CCNC(=O)c1ccc(NCC#Cc2cc3c(N[C@H]4CC[C@H](N5CCOCC5)CC4)cccc3n2CC(F)(F)F)c(OC)c1 [Compound 183A, N-ethyl-3-methoxy-4-{[3-(4-{[(1R,4R)-4-(morpholin-4-yl)cyclohexyl]amino}-1-(2,2,2-trifluoroethyl)-1H-indol-2-yl)prop-2-yn-1-yl]amino}benzamide]
10 | + (+ = 0 μM ≤ SC150 < 0.05 μM) | CS(=O)(=O)c1ccc(NCC#Cc2cc3c(NC4CCOCC4)cccc3n2CC(F)(F)F)c(OC(F)(F)F)c1 [Compound 991A, 2-(3-{[4-methanesulfonyl-2-(trifluoromethoxy)phenyl]amino}prop-1-yn-1-yl)-N-(oxan-4-yl)-1-(2,2,2-trifluoroethyl)-1H-indol-4-amine]
11 | + (+ = 0 μM ≤ SC150 < 0.05 μM) | COc1cc(C(C)(C)C#N)ccc1NCC#Cc1cc2c(N[C@H]3CC[C@H](N4CC5(CCOCC5)C4)CC3)cccc2n1CC(F)(F)F [Compound 301A, 2-(3-methoxy-4-{[3-(4-{[(1R,4R)-4-{7-oxa-2-azaspiro[3.5]nonan-2-yl}cyclohexyl]amino}-1-(2,2,2-trifluoroethyl)-1H-indol-2-yl)prop-2-yn-1-yl]amino}phenyl)-2-methylpropanenitrile]
12 | + (+ = 0 μM ≤ SC150 < 0.05 μM) | CN(C)[C@H]1CC[C@H](Nc2cccc3c2cc(C#CCNc2ccc(S(C)(=O)=O)cc2O)n3CC(F)(F)F)CC1 [Compound 80A, 5-methanesulfonyl-2-{[3-(4-{[(1S,4S)-4-(dimethylamino)cyclohexyl]amino}-1-(2,2,2-trifluoroethyl)-1H-indol-2-yl)prop-2-yn-1-yl]amino}phenol]
13 | + (+ = 0 μM ≤ SC150 < 0.05 μM) | CN(C)[C@H]1CC[C@@H](Nc2cccc3c2cc(C#CCNc2ccc(S(C)(=O)=O)cc2OCCO)n3CC(F)(F)F)CC1 [Compound 88A, 2-(5-methanesulfonyl-2-{[3-(4-{[(1S,4S)-4-(dimethylamino)cyclohexyl]amino}-1-(2,2,2-trifluoro-ethyl)-1H-indol-2-yl)prop-2-yn-1-yl]amino}phenoxy)ethan-1-ol]
14 | + (+ = 0 μM ≤ SC150 < 0.05 μM) | CN1CC[C@@H](Nc2cccc3c2cc(C#CCNc2ccc(S(C)(=O)=O)cc2O)n3CC(F)(F)F)[C@@H](F)C1 [Compound 834A, 2-{[3-(4-{[(3S,4R)-3-fluoro-1-methylpiperidin-4-yl]amino}-1-(2,2,2-trifluoroethyl)-1H-indol-2-yl)prop-2-yn-1-yl]amino}-5-methanesulfonylphenol]
15 | + (+ = 0 μM ≤ SC150 < 0.05 μM) | CNC(=O)c1ccc(NCC#Cc2cc3c(N[C@H]4CC[C@H](N(C)C)CC4)cccc3n2CC(F)(F)F)c(OCCF)c1 [Compound 104A, 3-(2-fluoroethoxy)-N-methyl-4-{[3-(4-{[(1R,4R)-4-(dimethyl-amino)cyclohexyl]amino}-1-(2,2,2-trifluoro-ethyl)-1H-indol-2-yl)prop-2-yn-1-yl]amino}benzamide]
16 | ++++ (++++ = 0.2 μM ≤ SC150 < 1 μM) | COc1cc(C(N)=O)ccc1NCC#Cc1cc2c(NC(=O)N3CCN(C)CC3)cccc2n1CC(F)(F)F [Compound 9A, N-(2-{3-[(4-carbamoyl-2-methoxyphenyl)amino]prop-1-yn-1-yl}-1-(2,2,2-trifluoroethyl)-1H-indol-4-yl)-4-methylpiperazine-1-carboxamide]
